Source: patent publication US20250122183A1 (Pfizer Inc., priority 2023, published 2025)
Read-outs that look alike come from different tables or passages of the source.

Experiments:
Type in all cases: biochemical
KAT6A Full length enzyme = KAT6A Full length enzyme (Homo sapiens (Human), UniProt Q92794); experiment: KAT6A assay (SAMDI-MS acetylation of H3 1-21 peptide); settings: replicate number in parentheses
[1] = target: KAT7+JADE1+EAF6+ING5 4 protein complex (Homo sapiens (Human), UniProt O95251); experiment: KAT7 JADE1 assay (SAMDI-MS acetylation of H3 1-21 peptide); settings: replicate number in parentheses
KAT8 Full length enzyme = KAT8 Full length enzyme (Homo sapiens (Human), UniProt Q9H7Z6); experiment: KAT8 assay (SAMDI-MS acetylation of H3 1-21 peptide); settings: replicate number in parentheses
KAT5 Full length enzyme = KAT5 Full length enzyme (Homo sapiens (Human), UniProt Q92993); experiment: KAT5 assay (SAMDI-MS acetylation of H4 1-21 peptide); settings: Morrison equation fit; replicate number in parentheses; read-out: KAT5 Ki (nM) (replicate number)
[2] = Morrison equation fit, read-out: KAT6A Ki (nM) (replicate number)
[3] = Morrison equation fit, read-out: KAT7 JADE1 Ki (nM) (replicate number)
[4] = Morrison equation fit, read-out: KAT8 Ki (nM) (replicate number)
[5] = read-out: KAT6A Ki (nM) (replicate)
[6] = read-out: KAT7 JADE1 Ki (nM) (replicate)
[7] = read-out: KAT8 Ki (nM) (replicate)

Chain of KAT5 Full length enzyme (Q92993 whole entry): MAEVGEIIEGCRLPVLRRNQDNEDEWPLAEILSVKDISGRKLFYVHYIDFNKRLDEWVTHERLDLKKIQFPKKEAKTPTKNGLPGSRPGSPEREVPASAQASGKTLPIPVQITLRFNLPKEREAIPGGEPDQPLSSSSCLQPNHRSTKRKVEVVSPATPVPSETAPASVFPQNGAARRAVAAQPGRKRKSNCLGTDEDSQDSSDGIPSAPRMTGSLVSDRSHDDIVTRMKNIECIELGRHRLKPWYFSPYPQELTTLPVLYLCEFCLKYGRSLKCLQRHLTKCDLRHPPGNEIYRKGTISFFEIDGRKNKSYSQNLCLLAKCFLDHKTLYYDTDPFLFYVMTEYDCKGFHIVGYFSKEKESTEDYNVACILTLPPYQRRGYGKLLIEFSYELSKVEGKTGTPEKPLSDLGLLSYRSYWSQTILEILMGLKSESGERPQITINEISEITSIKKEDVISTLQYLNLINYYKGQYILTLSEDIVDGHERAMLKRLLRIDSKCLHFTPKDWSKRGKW
Chain of KAT6A Full length enzyme (Q92794 other isoform, or with tags, fused parts or gaps): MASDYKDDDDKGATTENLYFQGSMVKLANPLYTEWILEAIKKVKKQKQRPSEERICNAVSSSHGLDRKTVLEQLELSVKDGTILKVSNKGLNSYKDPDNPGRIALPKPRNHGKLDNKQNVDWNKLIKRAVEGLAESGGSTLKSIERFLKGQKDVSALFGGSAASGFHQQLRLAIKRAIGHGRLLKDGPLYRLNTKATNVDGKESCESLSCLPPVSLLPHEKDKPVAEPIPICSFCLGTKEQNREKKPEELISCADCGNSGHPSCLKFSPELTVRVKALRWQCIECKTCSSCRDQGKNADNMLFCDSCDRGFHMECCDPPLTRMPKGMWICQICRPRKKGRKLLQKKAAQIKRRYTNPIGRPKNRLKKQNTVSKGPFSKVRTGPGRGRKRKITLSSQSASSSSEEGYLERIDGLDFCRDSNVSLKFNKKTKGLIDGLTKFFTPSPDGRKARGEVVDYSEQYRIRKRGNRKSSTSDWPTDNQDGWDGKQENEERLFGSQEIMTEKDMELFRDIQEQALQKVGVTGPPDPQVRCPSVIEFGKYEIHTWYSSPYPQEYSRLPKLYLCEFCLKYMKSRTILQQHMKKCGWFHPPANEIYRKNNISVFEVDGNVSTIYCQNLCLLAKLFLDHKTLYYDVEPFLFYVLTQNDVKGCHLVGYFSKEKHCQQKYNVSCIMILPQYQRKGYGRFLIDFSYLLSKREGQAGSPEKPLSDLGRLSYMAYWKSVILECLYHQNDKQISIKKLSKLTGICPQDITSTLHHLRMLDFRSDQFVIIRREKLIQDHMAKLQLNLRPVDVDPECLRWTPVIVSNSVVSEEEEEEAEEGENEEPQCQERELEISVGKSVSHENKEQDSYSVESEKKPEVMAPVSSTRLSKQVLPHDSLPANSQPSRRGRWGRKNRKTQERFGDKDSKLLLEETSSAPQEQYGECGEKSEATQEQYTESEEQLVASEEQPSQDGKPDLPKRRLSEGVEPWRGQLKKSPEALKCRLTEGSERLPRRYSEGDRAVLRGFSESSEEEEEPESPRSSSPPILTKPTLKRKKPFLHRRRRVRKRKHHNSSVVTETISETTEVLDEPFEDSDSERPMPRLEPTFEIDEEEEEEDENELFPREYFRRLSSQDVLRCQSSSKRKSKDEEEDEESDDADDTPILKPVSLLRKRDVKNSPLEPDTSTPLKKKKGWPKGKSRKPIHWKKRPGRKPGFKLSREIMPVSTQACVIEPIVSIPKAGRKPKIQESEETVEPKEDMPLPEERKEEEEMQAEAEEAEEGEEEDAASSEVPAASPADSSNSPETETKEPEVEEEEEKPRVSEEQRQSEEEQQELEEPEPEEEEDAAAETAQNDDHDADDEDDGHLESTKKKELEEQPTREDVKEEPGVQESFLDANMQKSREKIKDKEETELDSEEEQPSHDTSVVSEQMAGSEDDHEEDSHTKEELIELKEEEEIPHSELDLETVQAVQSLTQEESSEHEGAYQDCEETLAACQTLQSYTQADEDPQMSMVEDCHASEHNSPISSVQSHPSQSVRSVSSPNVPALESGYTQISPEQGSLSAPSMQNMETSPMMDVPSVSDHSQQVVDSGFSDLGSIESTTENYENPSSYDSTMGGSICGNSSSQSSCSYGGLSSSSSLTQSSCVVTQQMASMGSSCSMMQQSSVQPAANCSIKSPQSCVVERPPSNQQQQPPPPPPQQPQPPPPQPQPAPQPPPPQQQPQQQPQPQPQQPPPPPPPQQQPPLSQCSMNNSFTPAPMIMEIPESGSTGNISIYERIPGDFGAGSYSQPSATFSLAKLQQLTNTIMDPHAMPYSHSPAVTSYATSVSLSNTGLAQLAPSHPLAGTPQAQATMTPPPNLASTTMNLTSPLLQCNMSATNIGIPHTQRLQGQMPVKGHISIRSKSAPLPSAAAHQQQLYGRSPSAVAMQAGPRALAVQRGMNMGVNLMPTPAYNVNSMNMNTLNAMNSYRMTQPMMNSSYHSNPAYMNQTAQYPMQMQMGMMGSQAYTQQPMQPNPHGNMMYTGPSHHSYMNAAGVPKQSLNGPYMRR
Chain of KAT8 Full length enzyme (Q9H7Z6 whole entry): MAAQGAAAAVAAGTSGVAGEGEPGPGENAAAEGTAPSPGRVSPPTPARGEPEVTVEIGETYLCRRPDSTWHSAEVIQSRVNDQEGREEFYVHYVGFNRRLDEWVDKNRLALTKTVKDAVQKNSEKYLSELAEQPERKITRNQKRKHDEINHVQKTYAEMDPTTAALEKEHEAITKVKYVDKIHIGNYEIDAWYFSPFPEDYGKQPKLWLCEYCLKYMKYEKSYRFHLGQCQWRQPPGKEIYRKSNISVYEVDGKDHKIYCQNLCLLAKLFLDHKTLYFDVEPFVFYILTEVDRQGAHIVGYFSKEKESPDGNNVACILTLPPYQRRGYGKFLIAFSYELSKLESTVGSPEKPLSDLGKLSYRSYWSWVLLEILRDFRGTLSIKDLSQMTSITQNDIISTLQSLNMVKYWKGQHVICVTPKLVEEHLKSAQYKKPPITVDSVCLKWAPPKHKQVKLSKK

Compound | Ki (KAT6A Full length enzyme; [2]) [nM] | Ki [1, 3] [nM] | Ki (KAT8 Full length enzyme; [4]) [nM] | Ki (KAT5 Full length enzyme) [nM] | Ki (KAT6A Full length enzyme; [5]) [nM] | Ki [1, 6] [nM] | Ki (KAT8 Full length enzyme; [7]) [nM]
COc1cc2c(NS(=O)(=O)c3c(OC)cccc3OC)noc2cc1Nc1cc(C2CC(F)(F)C2)[nH]n1 [Example 117, N-(6-{[5-(3,3-difluorocyclobutyl)-1H-pyrazol-3-yl]amino}-5-methoxy-1,2-benzoxazol-3-yl)-2,6-dimethoxybenzene-1-sulfonamide] | 5.3 | 25.1 | 10000 | 360 | – | – | –
COc1cc2c(NS(=O)(=O)c3c(OC)cccc3OC)noc2cc1Nc1ccccn1 [Example 111, 2,6-dimethoxy-N-{5-methoxy-6-[(pyridin-2-yl)amino]-1,2-benzoxazol-3-yl}benzene-1-sulfonamide] | 0.8 | 400 | > 13000 | 1130 | – | – | –
COc1cc2c(NS(=O)(=O)c3cc4ccccc4cc3OC)noc2cc1Nc1cc(C2CC2)n[nH]1 [Example 95, N-{6-[(3-cyclopropyl-1H-pyrazol-5-yl)amino]-5-methoxy-1,2-benzoxazol-3-yl}-3-methoxynaphthalene-2-sulfonamide] | 0.1 | 0.3 | 77 | 18.1 | – | – | –
COc1cccc(OC)c1S(=O)(=O)Nc1noc2cc(N[C@H]3CCOC3)cc(OC)c12 [Example 14, 2,6-dimethoxy-N-(4-methoxy-6-{[(3S)-oxolan-3-yl]amino}-1,2-benzoxazol-3-yl)benzene-1-sulfonamide] | 10.1 | > 2340 | > 16300 | 44900 | – | – | –
COc1cccc(OC2CCC2)c1S(=O)(=O)Nc1noc2cc(Nc3cc(C4CC4)n[nH]3)c(F)c(OC)c12 [Example 98, 2-(cyclobutyloxy)-N-{6-[(3-cyclopropyl-1H-pyrazol-5-yl)amino]-5-fluoro-4-methoxy-1,2-benzoxazol-3-yl}-6-methoxybenzene-1-sulfonamide] | 5.7 | 74.6 | > 13000 | 3790 | – | – | –
COc1cc2c(NS(=O)(=O)c3c(OC)cc(-n4ncccc4=O)cc3OC)noc2cc1Nc1cc(C2CC2)n[nH]1 [Example 243, N-{6-[(3-cyclopropyl-1 H-pyrazol-5-yl)amino]-5-methoxy-1,2-benzoxazol-3-yl}-2,6-dimethoxy-4-(6-oxopyridazin-1(6H)-yl)benzene-1-sulfonamide] | 1.5 | 16.9 | 872 | 168 | – | – | –
CCc1cc(Nc2cc3onc(NS(=O)(=O)c4ccc(C(F)(F)F)cc4Cl)c3cc2OC)n[nH]1 [Example 124, 2-chloro-N-{6-[(5-ethyl-1H-pyrazol-3-yl)amino]-5-methoxy-1,2-benzoxazol-3-yl}-4-(trifluoromethyl)benzene-1-sulfonamide] | 51.3 | 47.9 | 8220 | 4570 | – | – | –
COc1cc2c(NS(=O)(=O)c3c(OC)cc(C(C)(C)OC)cc3OC)noc2cc1Nc1cc(C2CC2)n[nH]1 [Example 271, N-{6-[(3-cyclopropyl-1H-pyrazol-5-yl)amino]-5-methoxy-1,2-benzoxazol-3-yl}-2,6-dimethoxy-4-(2-methoxypropan-2-yl)benzene-1-sulfonamide] | – | – | – | – | 1 | 7 | 1010
COc1cc2c(NS(=O)(=O)c3c(OC)cc(CN(C)C)cc3OC)noc2cc1Nc1cc(C2CC2)n[nH]1 [Example 144, N-{6-[(3-cyclopropyl-1 H-pyrazol-5-yl)amino]-5-methoxy-1,2-benzoxazol-3-yl}-4-[(dimethylamino)methyl]-2,6-dimethoxybenzene-1-sulfonamide] | 1.8 | 10.2 | 2780 | – | – | – | –
COc1cc2c(NS(=O)(=O)c3c(OC)cc(C(C)OC)cc3OC)noc2cc1Nc1cc(C2CC2)[nH]n1 (single isomer, unassigned) [Example 272, N-{6-[(5-cyclopropyl-1H-pyrazol-3-yl)amino]-5-methoxy-1,2-benzoxazol-3-yl}-2,6-dimethoxy-4-(1-methoxyethyl)benzene-1-sulfonamide] | – | – | – | – | 0.7 | 5 | 2650
CCc1cc(Nc2cc3onc(NS(=O)(=O)c4c(OC)cc(-c5cnc(C)cn5)cc4OC)c3cc2OC)[nH]n1 [Example 232, N-{6-[(3-ethyl-1H-pyrazol-5-yl)amino]-5-methoxy-1,2-benzoxazol-3-yl}-2,6-dimethoxy-4-(5-methylpyrazin-2-yl)benzene-1-sulfonamide] | 0.6 | 6.4 | 2620 | – | – | – | –
CCc1cc(Nc2cc3onc(NS(=O)(=O)c4c(OC)cc(-c5ccc(C)cn5)cc4OC)c3cc2OC)[nH]n1 [Example 236, N-{6-[(3-ethyl-1H-pyrazol-5-yl)amino]-5-methoxy-1,2-benzoxazol-3-yl}-2,6-dimethoxy-4-(5-methylpyridin-2-yl)benzene-1-sulfonamide] | 0.4 | 3.5 | 364 | – | – | – | –
CCc1cc(Nc2cc3onc(NS(=O)(=O)c4c(OC)cc(-c5ncc(C)cn5)cc4OC)c3cc2OC)[nH]n1 [Example 234, N-{6-[(3-ethyl-1H-pyrazol-5-yl)amino]-5-methoxy-1,2-benzoxazol-3-yl}-2,6-dimethoxy-4-(5-methylpyrimidin-2-yl)benzene-1-sulfonamide] | 1 | 8.5 | 1680 | – | – | – | –
COc1cc2c(NS(=O)(=O)c3c(OC)cc(-c4ccc(C)cn4)cc3OC)noc2cc1Nc1cc(C2CC2)n[nH]1 [Example 215, N-{6-[(3-cyclopropyl-1H-pyrazol-5-yl)amino]-5-methoxy-1,2-benzoxazol-3-yl}-2,6-dimethoxy-4-(5-methylpyridin-2-yl)benzene-1-sulfonamide] | 0.4 | 4.2 | 994 | – | – | – | –
COc1cc2c(NS(=O)(=O)c3c(OC)cc(C4CCCN(C)C4)cc3OC)noc2cc1Nc1cc(C2CC2)n[nH]1 (single isomer, unassigned) [Example 150, N-{6-[(3-cyclopropyl-1 H-pyrazol-5-yl)amino]-5-methoxy-1,2-benzoxazol-3-yl}-2,6-dimethoxy-4-(1-methylpiperidin-3-yl)benzene-1-sulfonamide] | 0.8 | 6.3 | 10300 | – | – | – | –
COc1cc2c(NS(=O)(=O)c3c(OC)cc(C4CCCN(C)C4)cc3OC)noc2cc1Nc1cc(C2CC2)n[nH]1 (single isomer, unassigned) [Example 149, N-{6-[(3-cyclopropyl-1H-pyrazol-5-yl)amino]-5-methoxy-1,2-benzoxazol-3-yl}-2,6-dimethoxy-4-(1-methylpiperidin-3-yl)benzene-1-sulfonamide] | 0.6 | 5.3 | 19000 | – | – | – | –
COc1cc2c(NS(=O)(=O)c3cc4c(cc3OC)CCCC4)noc2cc1Nc1cc[nH]n1 [Example 05, 3-Methoxy-N-{5-methoxy-6-[(1H-pyrazol-3-yl)amino]-1,2-benzoxazol-3-yl}-5,6,7,8-tetrahydronaphthalene-2-sulfonamide] | 0.5 | – | 290 | 13.6 | – | – | –
COc1cc2c(NS(=O)(=O)c3cc(C)c(C)cc3OC)noc2cc1Nc1cc[nH]n1 [Example 25, 2-methoxy-N-{5-methoxy-6-[(1H-pyrazol-3-yl)amino]-1,2-benzoxazol-3-yl}-4,5-dimethylbenzene-1-sulfonamide] | 0.8 | – | 446 | 121 | – | – | –
CCc1cc(Nc2cc3onc(NS(=O)(=O)c4c(OC)cc(-c5ccc(C)nn5)cc4OC)c3cc2OC)[nH]n1 [Example 235, N-{6-[(3-ethyl-1H-pyrazol-5-yl)amino]-5-methoxy-1,2-benzoxazol-3-yl}-2,6-dimethoxy-4-(6-methylpyridazin-3-yl)benzene-1-sulfonamide] | 0.8 | 6 | 2360 | – | – | – | –
COc1cc2c(NS(=O)(=O)c3c(OC)cc(-c4nccc(C)n4)cc3OC)noc2cc1Nc1cc(C2CC2)n[nH]1 [Example 214, N-{6-[(3-cyclopropyl-1H-pyrazol-5-yl)amino]-5-methoxy-1,2-benzoxazol-3-yl}-2,6-dimethoxy-4-(4-methylpyrimidin-2-yl)benzene-1-sulfonamide] | 0.7 | 4.3 | 1720 | – | – | – | –
COc1cc2c(NS(=O)(=O)c3c(OC)cc([C@@H]4COCCO4)cc3OC)noc2cc1Nc1cc(C2CC2)n[nH]1 [Example 145] | 1.8 | 9.2 | 1510 | – | – | – | –
CCc1cc(Nc2cc3onc(NS(=O)(=O)c4c(OC)cc(-c5cccc(C)n5)cc4OC)c3cc2OC)[nH]n1 [Example 231, N-{6-[(3-ethyl-1H-pyrazol-5-yl)amino]-5-methoxy-1,2-benzoxazol-3-yl}-2,6-dimethoxy-4-(6-methylpyridin-2-yl)benzene-1-sulfonamide] | 1.1 | 8.8 | 859 | – | – | – | –
COCc1cc(OC)c(S(=O)(=O)Nc2noc3cc(Nc4cc(C5CC5)n[nH]4)c(OC)cc23)c(OC)c1 [Example 270, N-{6-[(3-cyclopropyl-1 H-pyrazol-5-yl)amino]-5-methoxy-1,2-benzoxazol-3-yl}-2,6-dimethoxy-4-(methoxymethyl)benzene-1-sulfonamide] | – | – | – | – | 1.3 | 13.5 | 1790
COc1cc2c(NS(=O)(=O)c3c(OC)cc(C(C)OC)cc3OC)noc2cc1Nc1cc(C2CC2)[nH]n1 (single isomer, unassigned) [Example 273, N-{6-[(5-cyclopropyl-1H-pyrazol-3-yl)amino]-5-methoxy-1,2-benzoxazol-3-yl}-2,6-dimethoxy-4-(1-methoxyethyl)benzene-1-sulfonamide] | – | – | – | – | 0.6 | 4.7 | 2020
